Drawing on PubChem BioAssay (NCI), this text covers TGI and GI50 for 13 compounds.

Experiment in all cases: NCI tumour cell line growth inhibition, 48 h
The subject of assay [1] is SNB-75 CNS.
Assay [2] has as its system SF-539 CNS.
Assay [3] relates to UACC-257 melanoma.
In assay [4] the test system is NCI-H23 lung.
Assay [5] relates to HOP-62 NSCLC.
Assay [6] deals with TK-10 renal.
Assay [7] has as its system T-47D breast.
Assay [8] relates to MCF7 breast.
Assay [9] relates to SN12C renal.
Assay [10] relates to 786-0 renal.

Several values for one entry are separate records, joined by “and”; a condition that tells them apart may be missing. Equal entries are not always repeated.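 How tested: cells in 96-well plates exposed to compound for 48 hours at five concentrations. At the GI50, growth is halved. At the TGI there is no net growth.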

As for `OC1C[C@H](c2ccccc2)C2(C(O)c3ccccc3C2O)[C@@H](c2ccccc2)C1` (some centres undefined), the TGI in assay [1], in [2], in [3], in assay [4], in assay [5] and in [6] was more than 100 µM each time. The TGI in assay [7], in assay [8], in assay [9] and in [10] was more than 100 µM throughout.

As to `COc1ccc(-c2nn(-c3ccc(NC(=O)Nc4ccc(Cl)c(C(F)(F)F)c4)cc3)cc2-c2ccncc2)cc1Cl`, the GI50 in assay [1] is 1.36 µM; in assay [2] it was 1.53 µM; in assay [3], 1.94 µM; in assay [4] it was 1.77 µM; in [5], 1.81 µM; in [6], 1.41 µM. In addition, the GI50 is 2.72 µM in [7], 1.7 µM in [8] and 2.23 µM in assay [9]. Moreover, the TGI in [1] worked out at 7.86 µM; in assay [2] it was 4 µM; in assay [3], 4.91 µM; in assay [4], 8.17 µM; in assay [5], 4.45 µM; in [6], 5.27 µM. Moreover, the results for the TGI in assay [7], in assay [8] and in assay [9] were 7.73 µM, 4.54 µM and 8.69 µM, respectively.

Regarding `C=C1C(=O)OC2CC3(C)OC3CC/C(C)=C/C(OC(C)=O)C12` (centres undefined), the TGI is 22 µM in assay [1]; 16.8 µM in assay [2]; 22.6 µM in assay [3]; 27.6 µM in [4]; 33.5 µM in assay [5]; 12.8 µM in [6]. Moreover, the TGI was determined as 15.9 µM in assay [7], 18 µM in assay [8], 26.3 µM in assay [9] and 14.2 µM in [10].

Turning to `[N-]=[N+]=Nc1c([N+](=O)[O-])c(=O)n2c3c(cccc13)CCC2`, the TGI in [1] was 38.1 µM; in assay [2], 52.2 µM; in [3] it was 21.5 µM; in [4] it was 43.6 µM; in [5], more than 100 µM; in assay [6] it was 34.3 µM. Also, the TGI turned out to be 26.3 µM in assay [7], 27 µM in assay [8], 25.9 µM in [9] and 30.9 µM in assay [10].

As to `C[N+](C)(CCNC(=O)c1cccc2cc3ccccc3nc12)Cc1ccc([N+](=O)[O-])s1`, the TGI in assay [1], in [3], in [4], in [5], in assay [6] and in [7] was more than 25 µM each time. The TGI in assay [8], in [9] and in assay [10] was more than 25 µM throughout.

As for `CN(C)/N=N/c1nc[nH]c1C(N)=O`, the GI50 is 126 µM in assay [1]; 47.5 µM in assay [2]; 225 µM in assay [3]; 43.8 µM in assay [5]; 46.8 µM in [6]; 77.3 µM in assay [7]. In addition, the GI50 in [8] was 154 µM; in assay [9] it was 60.6 µM. For the same compound, the TGI in assay [1] is 82.2 µM and > 763 µM; in [2], 99.3 µM and > 875 µM; in assay [3], more than 1000 µM; in assay [6], 828 µM; in assay [7], more than 464 µM; in assay [8] it was more than 1000 µM. Also, the TGI in assay [9] and in assay [10] was more than 1000 µM throughout.

`O=C(O)CCC(NC(=O)c1ccc(Nc2nc3cc(C(F)(F)F)ccc3nc2C(=O)O)cc1)C(=O)O` (centres undefined): the TGI in assay [1], in assay [2], in assay [3], in [4], in assay [5] and in [6] was more than 100 µM each time. Also, the TGI in [7], in [8] and in [10] was more than 100 µM throughout.

With `C/C=C(/C)C(=O)O[C@H]1[C@H](O)CC(c2ccc3c(c2O)C(O)=C2C(=O)C4(OC)C(O)=C(C(N)=O)C(=O)[C@H](CC(=O)c5ccccc5O)C4CC2[C@@]3(C)OC)O[C@@H]1C` (some centres undefined), the TGI in assay [1] is 2.05 µM and 0.705 µM; in assay [2], 0.101 µM; in assay [4], 0.228 µM and 0.067 µM; in assay [6], 6.19 µM and 4.65 µM; in assay [7], 8.06 µM; in assay [8], 1.15 µM. In addition, the TGI in assay [9] was 1.39 µM and 0.198 µM; in [10], 1.43 µM and 1.35 µM.

As to `O=C(O)C(=O)/C=C(\O)c1ccc(Br)cc1`, the TGI in assay [1], in [3], in [4], in assay [5], in assay [6] and in [7] was more than 100 µM each time. For the same compound, the TGI in assay [8], in [9] and in assay [10] was more than 100 µM each time.

Regarding `Cc1c(C(=O)O)n2cnnc2c2ccccc12`, the TGI in assay [2], in assay [3], in assay [4], in [5], in [6] and in [7] was more than 100 µM throughout. Besides, the TGI in assay [8], in assay [9] and in [10] was more than 100 µM each time.

`C=CCn1c(-c2ccc([N+](=O)[O-])cc2)csc1=N`: the TGI was 95.6 µM in assay [1]; more than 100 µM in assay [3]; more than 100 µM in [4]; more than 100 µM in [5]; more than 100 µM in [6]; more than 100 µM in assay [7]. Further, the TGI in [8], in assay [9] and in assay [10] was more than 100 µM in each case.

Consider `CCC(NC1=NCCO1)c1cccs1` (centres undefined), for which the TGI in assay [1] is 16.9 µM; in [2] it was 29.8 µM; in assay [3], 35.8 µM; in [4], 31.6 µM; in assay [6], 29.9 µM; in assay [7], 37 µM. Besides, the TGI in [8] is 29 µM; in assay [10] it was 28.7 µM.

As to `Cc1sc2nc3n(c(=O)c2c1C)N=CN(c1ccc(F)cc1)C3`, the TGI in assay [1], in assay [3], in assay [4], in assay [5], in assay [6] and in [7] was more than 100 µM in each case. Also, the TGI is more than 100 µM in [8], more than 100 µM in assay [9] and 38.3 µM in assay [10].
